{
  "source": "patent US12048764B2",
  "about": "“Levodopa infusion solution” (DIZLIN PHARMACEUTICALS AB, priority 2017, dated 2024)",
  "key": {"[1]": {"assay": "Preliminary patient trial: s.c./i.v. infusion versus intestinal Duodopa, plasma levodopa and carbidopa", "format": "in vivo, patients with Parkinson's disease", "text": "The trial results are from 3 randomly selected patients of a larger study, and for each patient subcutaneous, intravenous injection and intestinal administration was compared.\nThe study was a prospective, randomized, 3-period cross-over, open-label multicentre trial comparing intravenous and subcutaneous infusion of the preferred aqueous pharmaceutical solution with intestinal Duodopa (LCIG) performed according to the principles of Good Clinical Practice (GCP). The trial included patients with Parkinson's disease who are on Duodopa treatment because of severe on-off manifestation when on oral levodopa. During one treatment visit, patients receive Duodopa at optimal dosage for 16 hours, during another treatment visit, the patients received an i.v. infusion of the preferred aqueous pharmaceutical solution at a concentration estimated to yield corresponding serum levels of levodopa for the same duration, and at a third treatment visit the patients received the corresponding amount of levodopa but in the form of s.c. infusion. Blood samples were drawn according to a set schedule during the treatment visits for up to 24 h. […]\nLevodopa and carbidopa in patient's plasma was analysed by ultra-performance liquid chromatography-tandem mass spectrometry (UPLC-MS/MS) according to the principles of Good Laboratory Practice (GLP)."}, "[2]": {"conditions": "cited from earlier work"}},
  "data": [
    {"smiles": "N[C@@H](Cc1ccc(O)c(O)c1)C(=O)O", "note": "[levodopa]", "values": [
      {"measurement": "levodopa concentration in the blood required for therapeutic effect", "setting": "[1]; patient no 101, severe PD", "result": "5,000-6,000 ng/mL"},
      {"measurement": "levodopa concentration in the blood required for therapeutic effect", "setting": "[1]; patient no 103, moderate or mild PD", "result": "1,600-1,700 ng/mL"},
      {"measurement": "concentration above which levodopa precipitates", "setting": "[2]; pH values acceptable for continuous parenteral administration", "result": "500 to 1000", "unit": "µg/mL"},
      {"measurement": "levodopa concentration obtainable", "setting": "[2]; pH<3 or pH>9", "result": "exceeding 5 mg/ml"}
    ]}
  ]
}
